How the values were obtained:
[1] = tested on: MLKL translocation in transfected THP-1 cells; experiment: Flag-MLKL translocation to cell membrane, immunofluorescent staining, confocal microscopy; assay type: cell-based, human; settings: transfected THP-1 cells stimulated with compound and TBZ, FIG. 3
Procedure: A human monocyte cell line THP-1 and a human colon cancer cell line HT-29 were maintained in a 10% FBS-Roswell Park Memorial Institute (RPMI) 1640 medium supplemented with 2 mM L-glutamine, 100 U/ml penicillin, and 100 μg/ml streptomycin at 37° C. under a 5% CO2 condition. The THP-1 cells were differentiated into macrophages in an RPMI 1640 medium containing 500 nM Phorbol 12-myristate 13-acetate (PMA) for 3 hours. Human mixed lineage kinase domain-like protein (MLKL)-flag plasmid (Sino Biological, HG12810-CF) transfection was performed using the electroporation system (Invitrogen) of MicroPorator-mini (Digital Bio).
Cells were seeded on cell culture-treated glass chamber slides. The cells were pretreated with Z-VAD, BV6, and the indicated compound for 1 hour, and then treated with TNF-α and BV6 overnight. Subsequently, the cells were washed with phosphate-buffered saline (PBS) and fixed in 4% paraformaldehyde for 10 minutes. Before incubation for 10 minutes in 0.25% Triton X-100 in PBS, the cells were washed three more times with PBS. The cells were blocked with 5% bovine serum albumin (BSA) in PBS for 30 minutes and stained using an anti-Flag (Sigma, F7425-2MG) antibody. The nuclei were stained with DAPI (Invitrogen, 00-4959-52). Images were captured using a confocal microscope (Olympus, FV1000). […]

MLKL protein = target: T1, MLKL protein (Homo sapiens, UniProt Q8NB16); experiment: Surface plasmon resonance (SPR) analysis, binding to MLKL protein; settings: MLKL immobilized on CM5 chip, Biacore T200, 25° C., 10 mM HEPES pH 7.4
T1 construct: purchased Abcam ab241453
T1 sequence (Q8NB16 1-471): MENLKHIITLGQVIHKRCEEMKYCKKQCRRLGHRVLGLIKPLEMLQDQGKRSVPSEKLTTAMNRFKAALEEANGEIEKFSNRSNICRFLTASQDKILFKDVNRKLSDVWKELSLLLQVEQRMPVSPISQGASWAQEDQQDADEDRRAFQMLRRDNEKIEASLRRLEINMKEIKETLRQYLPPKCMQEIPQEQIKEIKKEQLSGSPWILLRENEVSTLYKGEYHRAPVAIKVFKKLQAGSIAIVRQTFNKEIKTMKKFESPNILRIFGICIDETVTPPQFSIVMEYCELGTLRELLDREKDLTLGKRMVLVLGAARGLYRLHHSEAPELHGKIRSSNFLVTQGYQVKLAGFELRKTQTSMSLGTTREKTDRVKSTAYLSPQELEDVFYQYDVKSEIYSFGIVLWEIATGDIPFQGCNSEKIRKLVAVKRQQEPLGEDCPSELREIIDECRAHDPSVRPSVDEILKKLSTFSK
Procedure: (§1) The interaction between MLKL and apomorphine (=APO) was detected through surface plasmon resonance (SPR) analysis using Biacore T200 (GE Healthcare). For pH scouting, a buffer consisting of 10 mM sodium acetate (pH 4.0 to 6.0) was used. MLKL protein (Abcam, ab241453), and MLKL N-term (amino acids 1-154) protein that had been purified in a laboratory were immobilized on the surface of a sensor chip CM5 (GE Healthcare) under scouted buffer conditions. To deduce an Rligand value, a coupling process was performed based on the molecular weights of MLKL, MLKL N-term domain (MW ligand), and APO (MW analyte). Oxidized (24 hr, RT incubation) and reduced (+DTT(DL-dithiothreitol)) forms of APO were injected into a running buffer (flow rate: 10 μl/min) consisting of 10 mM HEPES (pH 7.4) at 25° C. A sensorgram was recorded and analyzed in real time using control software provided by the Biacore T200 system itself. Six or more concentrations of APO were used in combination, and each KD value was derived. All run data was calculated using BIAevaluation Software (GE Healthcare).
(§2) SPR analysis was used to analyze the interaction pattern between APO and the MLKL protein (Experimental Method 1-10). […] Here, the analysis was performed by binding MLKL and the MLKL N-term domain protein immobilized on a CM5 chip with APO having six concentrations.

MLKL oligomerization = MLKL oligomerization (tetramer and octamer bands) by non-reducing or reducing SDS-PAGE; assay type: cell-based, human; settings: cytoplasmic and membrane fractions, necroptosis induced with TBZ, FIG. 2 / FIG. 6A
Procedure: Cells were pretreated with Z-VAD (invivoGen, tlrl-vad) and a compound for 1 hour, and necroptosis was induced with TNF-α (ATGen, TNF0501) and BV6 (Biovision, B1332-5) for the indicated time. The prepared cells were appropriately treated according to analysis (Z-VAD: carbobenzoxy-valyl-alanyl-aspartyl, TNF-α: tumor necrosis factor-α, BV6: 4,4′-(1,6-hexanediyl)bis[N-methyl-L-alanyl-(2S)-2-cyclohexylglycyl-L-prolyl-β-phenyl-L-phenylalaninamide)
Cells were treated with a drug candidate and then collected using centrifugation at 4° C. and 1,500×g for 5 minutes. A supernatant was centrifuged again at 4° C. and 1,500×g for 5 minutes to remove remaining debris, concentrated at 4° C. and 14,000×g for 30 minutes using Amicon ultra-0.5 centrifugal filter unit 10K (Millipore, UFC501096), and stored. […] The extracted protein concentration was measured using a bicinchoninic acid (BCA) protein assay kit (Thermo Fisher Scientific, 23225). […]
To test whether the tetramer and octamer formation of p-MLKL for pore formation in the cell membrane is inhibited by apomorphine (APO), cells that had been treated with each molecule for the indicated time were separated into cytoplasmic and membrane fractions and analyzed through non-reducing or reducing sodium dodecyl sulfate-polyacrylamide gel electrophoresis (SDS-PAGE), and then investigated with specific antibodies (Experimental Method 1-6). […]

[2] = target: T2, MLKL N-term domain (amino acids 1-154) (Homo sapiens, UniProt Q8NB16); experiment: Surface plasmon resonance (SPR) analysis, binding to MLKL N-term domain; settings: MLKL N-term domain immobilized on CM5 chip, Biacore T200, 25° C., 10 mM HEPES pH 7.4
T2 construct: MLKL N-term (amino acids 1-154) protein that had been purified in a laboratory; made in house
T2 sequence (Q8NB16 1-154): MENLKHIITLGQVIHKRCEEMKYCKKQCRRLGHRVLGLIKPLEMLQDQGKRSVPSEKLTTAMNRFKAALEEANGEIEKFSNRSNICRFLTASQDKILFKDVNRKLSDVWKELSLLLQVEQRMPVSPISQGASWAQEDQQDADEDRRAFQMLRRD
Procedure: as §1, §2

Kd (MLKL protein) | Kd [2] | Compound | distribution of Flag-MLKL signals [1] | intensities of the tetramer and octamer bands of MLKL (MLKL oligomerization)
 |  | CN1C(=O)C(Cc2c[nH]c3ccccc23)NC1=S (stereo not shown) [NEC-1, necrostatin-1] | mostly distributed in the cytoplasm | 
0.244 µM | 1140 µM | CN1CCc2cccc3c2[C@H]1Cc1ccc(O)c(O)c1-3 [reduced APO] |  | no change

From patent publication US20250000855A1, “USE OF APOMORPHINE AS THERAPEUTIC AGENT FOR NECROPTOSIS-RELATED DISEASES” (INDUSTRY-ACADEMIC COOPERATION FOUNDATION, YONSEI UNIVERSITY, priority 2021, published 2025)
